Earlier results as cited in patent publication US7265145B2, “Substituted piperidines and pyrrolidines as calcium sensing receptor modulators and method” (Bristol-Myers Squibb Company, priority 2003, dated 2007).

Tests used:
[1] = OVX rats; oral administration; in the presence of an anti-resorptive agent
[2] = intravenous bolus injection
[3] = postmenopausal women; placebo-controlled trial

Compound	bone mass [1]	serum PTH [2]	reduce the risk of non-traumatic, non-spine fractures [3] [%]	reduce the risk of spine fractures [3] [%]
CC(C)(Cc1ccc2ccccc2c1)NC[C@@H](O)COc1cccc(Cl)c1C#N [NPS-2143]	increase in bone mass	transient increase in serum PTH	–	–
PTH peptide fragment (1-34): PTH peptide fragment (1-34) of parathyroid hormone, stimulator of bone formation (SVSEIQLMHNLGKHLNSMERVEWLRKKLQDVHNF; Parathyroid hormone; UniProt P01270 32-65, looked up, fragment)	–	–	54	65
